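Briefly, cells in 96-well plates were exposed to five compound concentrations for 48 h, and endpoints were estimated by linear interpolation. GI50 = concentration required for 50% inhibition of growth. TGI: total growth inhibition.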

The first experiment deals with NCI-H522 lung. The experiment in a line: NCI anticancer screen, dose series, 48 h.
`CN(C)c1nc(=Nc2ccc(N=c3nc(N(C)C)ss3)cc2)ss1` displayed a TGI of 25.8 µM.
Still for that read-out and setting: the result for `C[Si](C)(C)C1(Sc2ccccc2)SCCCS1` reads 68.6 µM.
For `Cc1cc(-c2ccc3nc(C4CCOCC4)n(CCOC(F)(F)F)c3c2)cn(C)c1=O`, the GI50 is 0.244 µM and the TGI was found to be 9.31 µM.
Regarding `c1ccc(COc2cccc3ccc[n+](Cc4ccccc4)c23)cc1`, the TGI was determined as 8.02 µM.
The same measure, in the same setting: in the case of `O=S1(=O)OCCOS(=O)(=O)C1Br` it was more than 100 µM; in that of `CC1=CC(O)(c2ccc(-c3ccccc3Cl)cc2)OC1=O` (stereo not given), more than 100 µM; in that of `CC(C)(C)OC(=O)N[C@H]1CC2(C=C(Cl)C(=O)C(Cl)=C2)OC1=O`, 7.18 µM.
For `C/C(=N\NC(=S)NC(CCC(=O)O)C(=O)O)c1ccccn1` (stereo not given), the TGI is more than 100 µM.
On the same count and under the same terms, the result for `C#CC1(O)CCC2C3CCc4cc(Oc5nc(F)nc(-c6c7ccccc7c7sc8ccccc8n67)n5)ccc4C3CC[C@@]21C` (stereo not given in full) reads 43.7 µM.
The same measure, in the same setting: in the case of `Cc1ccc(NC(=O)c2cc3cc(N=Nc4ccccc4C(=O)O)ccc3oc2=O)cc1` it was more than 100 µM; in that of `COc1ccc(S(=O)(=O)NNS(C)(=O)=O)cc1`, more than 100 µM.
Molecule `O=C(/C=C\c1ccc(Cl)c(Cl)c1)c1ccc(Cl)cc1Cl` came in with a TGI of 32.6 µM.
Still for that read-out and setting: in the case of `CC(=O)/C(=C\c1cccc([N+](=O)[O-])c1)C(=O)Nc1ccccc1C` it was more than 100 µM; in that of `CCN1c2ccccc2C(C(SC)S(=O)(=O)c2ccc(C)cc2)c2c1[nH]c(=O)n(C)c2=O` (stereo not given), more than 100 µM.

The subject of the next experiment is 786-0 renal. The experiment in a line: NCI anticancer screen, dose series, 48 h.
`O=c1cc(-c2ccccc2)oc2cc(OCCCOc3ccc4c(=O)cc(-c5ccccc5)oc4c3)ccc12` registered a TGI of more than 100 µM.
In turn, `COc1cc2c(c(OC)c1OC)-c1ccc(OC)c(=O)cc1C(NC(=O)c1ccc(N=[N+]=[N-])cc1)CC2` (stereo not given) returned a TGI of more than 100 µM.
Molecule `Clc1ccc(C(c2ccc(Cl)cc2)c2ccccn2)cc1` yielded a TGI of 30.6 µM.
On the same count and under the same terms, the result for `CC(C)=Cc1cc(C(=O)Nc2ccc(Cl)c(Cl)c2)nc(N)n1` reads more than 100 µM.
Take `CCN1CCN(c2nc(C)cc(N(CCNc3ccnc4cc(Cl)ccc34)Cc3ccc4c(c3)OCO4)n2)CC1`: the GI50 was 1.54 µM and the TGI turned out to be 3.08 µM.
`Cn1cnc([N+](=O)[O-])c1Sc1nc2ccccc2[nH]1` registered a TGI of more than 100 µM.
Regarding `COc1ccc([C@H]2[C@@H](F)C(=O)N2c2cc(OC)c(OC)c(OC)c2)cc1F`, the GI50 is 0.0462 µM and the TGI turned out to be 15.1 µM.
In turn, `CCCCCCN(CCCCCC)C(=O)Cc1c2n(c3ccccc13)Cc1ccccc1-2` registered a TGI of more than 100 µM.
The molecule `CCCCCCCCC/C=C1\CCC(CN2CCOCC2)C1=O` (stereo not given) yielded a TGI of 9.69 µM.
On the same count and under the same terms, the result for `CC(=O)OC1COC(n2ccc3cc(Br)c([N+](=O)[O-])cc32)C(OC(C)=O)C1OC(C)=O` (stereo not given) reads 97.9 µM; that for `CCOC(=O)NC(=O)c1cn(CCCO)c(=O)[nH]c1=O`, more than 100 µM.
For the molecule `CN(C)c1nc(=Nc2ccc(N=c3nc(N(C)C)ss3)cc2)ss1`, the TGI is more than 100 µM.
The molecule `CCc1cc(Cc2cc(CC)c(NC(=O)C(=O)Cc3ccccn3)c(CC)c2Cl)c(Cl)c(CC)c1NC(=O)C(=O)Cc1ccccn1` showed a TGI of more than 100 µM.
The molecule `C[Si](C)(C)C1(Sc2ccccc2)SCCCS1` gave a TGI of more than 100 µM.
In the case of `Cc1cc(-c2ccc3nc(C4CCOCC4)n(CCOC(F)(F)F)c3c2)cn(C)c1=O`, the GI50 was 1.03 µM.
In the case of `O=C(CSc1ccc(Cl)cc1)Nc1ccc(-c2nc3ccccc3s2)c(Cl)c1`, the GI50 was 3.94 µM and the TGI was 24.7 µM.
Molecule `c1ccc(COc2cccc3ccc[n+](Cc4ccccc4)c23)cc1` displayed a TGI of 84.6 µM.
Still for that read-out and setting: the result for `O=S1(=O)OCCOS(=O)(=O)C1Br` reads more than 100 µM; that for `CCOC(=O)C(=C=C=C(c1ccccc1)c1ccccc1)C(=O)OCC`, 32 µM.
Same read-out and setting: the result for `CC1=CC(O)(c2ccc(-c3ccccc3Cl)cc2)OC1=O` (stereo not given) reads more than 100 µM; that for `CC(C)(C)OC(=O)N[C@H]1CC2(C=C(Cl)C(=O)C(Cl)=C2)OC1=O`, 28.6 µM.
As for `OCCCCCNCc1cc2cc3c(cc2c2cc(OCc4ccccc4)ccc12)OCO3`, the GI50 is 1.61 µM and the TGI was determined as 2.96 µM.
In the case of `C/C(=N\NC(=S)NC(CCC(=O)O)C(=O)O)c1ccccn1` (stereo not given), the TGI is more than 100 µM.
Still for that read-out and setting: the result for `C#CC1(O)CCC2C3CCc4cc(Oc5nc(F)nc(-c6c7ccccc7c7sc8ccccc8n67)n5)ccc4C3CC[C@@]21C` (stereo not given in full) reads more than 100 µM.
`Cc1ccc(NC(=O)c2cc3cc(N=Nc4ccccc4C(=O)O)ccc3oc2=O)cc1` yielded a TGI of more than 100 µM.
For the molecule `COc1ccc(S(=O)(=O)NNS(C)(=O)=O)cc1`, the TGI was more than 100 µM.
Same read-out and setting: the result for `O=C(/C=C\c1ccc(Cl)c(Cl)c1)c1ccc(Cl)cc1Cl` reads 39.6 µM.
The same measure, in the same setting: the result for `CC(=O)/C(=C\c1cccc([N+](=O)[O-])c1)C(=O)Nc1ccccc1C` reads more than 100 µM.
The same measure, in the same setting: in the case of `CCN1c2ccccc2C(C(SC)S(=O)(=O)c2ccc(C)cc2)c2c1[nH]c(=O)n(C)c2=O` (stereo not given) it was more than 100 µM; in that of `COC(OC)C(C)CC(=O)N(C)C` (stereo not given), more than 100 µM.

A further experiment deals with DU-145 prostate. Nature of the experiment: NCI anticancer screen, dose series, 48 h.
As to `COc1cc2c(c(OC)c1OC)-c1ccc(OC)c(=O)cc1C(NC(=O)c1ccc(N=[N+]=[N-])cc1)CC2` (stereo not given), the TGI turned out to be 0.439 µM.
`COc1ccc([C@H]2[C@@H](F)C(=O)N2c2cc(OC)c(OC)c(OC)c2)cc1F`: the GI50 is 0.269 µM and the TGI is more than 100 µM.
`CCCCCCCCC/C=C1\CCC(CN2CCOCC2)C1=O` (stereo not given) gave a TGI of 17.5 µM.
For `CC(C)(C)OC(=O)N[C@H]1CC2(C=C(Cl)C(=O)C(Cl)=C2)OC1=O`, the TGI came out at 78.9 µM.
Turning to `OCCCCCNCc1cc2cc3c(cc2c2cc(OCc4ccccc4)ccc12)OCO3`, the GI50 was 1.54 µM and the TGI was 2.88 µM.

A further experiment deals with SNB-75 CNS. Nature of the experiment: NCI anticancer screen, dose series, 48 h.
Consider `O=c1cc(-c2ccccc2)oc2cc(OCCCOc3ccc4c(=O)cc(-c5ccccc5)oc4c3)ccc12`, for which the TGI is more than 100 µM.
Still for that read-out and setting: the result for `COc1cc2c(c(OC)c1OC)-c1ccc(OC)c(=O)cc1C(NC(=O)c1ccc(N=[N+]=[N-])cc1)CC2` (stereo not given) reads more than 90.8 µM; that for `Clc1ccc(C(c2ccc(Cl)cc2)c2ccccn2)cc1`, more than 100 µM.
Same read-out and setting: the result for `CC(C)=Cc1cc(C(=O)Nc2ccc(Cl)c(Cl)c2)nc(N)n1` reads more than 100 µM.
With `CCN1CCN(c2nc(C)cc(N(CCNc3ccnc4cc(Cl)ccc34)Cc3ccc4c(c3)OCO4)n2)CC1`, the GI50 was 1.35 µM and the TGI was determined as 2.9 µM.
As for `Cn1cnc([N+](=O)[O-])c1Sc1nc2ccccc2[nH]1`, the TGI is 49.9 µM.
As for `COc1ccc([C@H]2[C@@H](F)C(=O)N2c2cc(OC)c(OC)c(OC)c2)cc1F`, the GI50 was more than 100 µM and the TGI is more than 100 µM.

Source of the values: PubChem BioAssay (NCI).
